Earlier results in patent US20150031774A1, “RASAGILINE ORALLY DISINTEGRATING COMPOSITIONS” (priority 2004, published 2015).

Target: 9-form of the enzyme monoamine oxidase (Homo sapiens, UniProt P27338)
Conditions: prior-art patents cited in background

Chain of 9-form of the enzyme monoamine oxidase (P27338 whole entry): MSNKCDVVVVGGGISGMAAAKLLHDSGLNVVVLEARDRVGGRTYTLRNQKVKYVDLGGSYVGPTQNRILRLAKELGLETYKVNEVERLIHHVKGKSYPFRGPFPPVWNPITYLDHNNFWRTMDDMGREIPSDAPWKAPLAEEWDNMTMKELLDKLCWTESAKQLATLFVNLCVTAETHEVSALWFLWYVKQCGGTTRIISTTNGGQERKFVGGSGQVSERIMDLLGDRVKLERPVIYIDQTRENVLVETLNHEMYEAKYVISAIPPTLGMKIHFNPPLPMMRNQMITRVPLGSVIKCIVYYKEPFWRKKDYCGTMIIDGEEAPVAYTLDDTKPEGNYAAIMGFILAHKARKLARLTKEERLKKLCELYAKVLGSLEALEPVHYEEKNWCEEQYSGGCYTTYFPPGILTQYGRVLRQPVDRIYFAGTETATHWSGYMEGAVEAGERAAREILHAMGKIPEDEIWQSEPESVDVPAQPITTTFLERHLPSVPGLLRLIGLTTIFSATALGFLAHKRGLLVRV

**Q.** With `C#CCN[C@@H]1CCc2ccccc21` [Rasagiline, R(+)-propargyl-1-aminoindan] as the compound, how does the “selectivity of monoamine oxidase inhibition” value read?
**A.** The value was “selective inhibitor”.
